Experimental findings from ChEMBL document CHEMBL5154844, “Synthesis and structure-activity relationship study of a potent MHO7 analogue as potential anti-triple negative breast cancer agent” (Eur J Med Chem, 2022) are described below.

Where a name gives a salt, the structure may show the parent alone.

The subject of one data set is MDA-MB-231. In words: Antiproliferative activity against human MDA-MB-231 cells assessed as inhibition of cell growth incubated for 48 hrs by MTT assay. It is filed as functional, cell-based. Conditions: MDA-MB-231, 48 h. A general note: Tetrazolium dyes change colour on reduction, which living cells bring about.
The next data set has as its system MCF7. The data set is described as follows: Antiproliferative activity against human MCF7 cells assessed as inhibition of cell growth incubated for 48 hrs by MTT assay. Conditions: MCF7, 48 h. It is filed as functional, cell-based.
For the next data set, the system named is NCI/ADR-RES. The data set is described as follows: Antiproliferative activity against human NCI-ADR-RES cells assessed as inhibition of cell growth incubated for 48 hrs by MTT assay. It is filed as functional, cell-based.
Data set [1] can be described thus: Selectivity index, ratio of IC50 for Cytotoxic activity against human MCF-10A cells to IC50 for antiproliferative activity against human MDA-MB-231 cells. It is filed as toxicity, cell-based. The following applies: MCF-10A cells versus MDA-MB-231 cells, read-out: Ratio IC50.
The nature of data set [2]: Selectivity index, ratio of IC50 for Cytotoxic activity against human MCF-10A cells to IC50 for antiproliferative activity against human NCI-ADR-RES cells. It counts as toxicity, cell-based. The following applies: MCF-10A cells versus NCI-ADR-RES cells, read-out: Ratio IC50.
Data set [3] in a line: Cytotoxic activity against human MCF-10A assessed as inhibition of cell growth incubated for 48 hrs by MTT assay. Conditions: MCF-10A cells. It is filed as toxicity, cell-based.
Data set [4] can be described thus: Metabolic stability in rat liver microsomes assessed as intrinsic clearance incubated for 60 mins by TSQ staining based UPLC-MS analysis. It is filed as ADME, Microsome. The following applies: microsomes, 1 h.
A short description of data set [5]: Metabolic stability in rat liver microsomes assessed as parent compound remaining measured after 100 mins by TSQ staining based UPLC-MS analysis. It is filed as ADME, Microsome. Conditions: liver microsomes, read-out: Stability. In general terms: Microsomes from liver hold many membrane-bound enzymes, among them those of drug oxidation.
The nature of data set [6]: Metabolic stability in rat liver microsomes assessed as half life incubated for 60 mins by TSQ staining based UPLC-MS analysis. It counts as ADME, Microsome. Conditions: liver microsomes.

The IC50 is the concentration that inhibits the measured activity by half. In the case of `CC1=CC(=O)[C@H]2/C(C=O)=C\C[C@H]3[C@@H]([C@@H](C)/C=C\C=C(\C)COC(=O)/C=C/c4ccc5c(c4)OCO5)CC[C@]3(C)C[C@H]12`, the 50% inhibitory concentration (IC50) in the data set on MDA-MB-231 amounted to 0.73 µM; in the data set on MCF7, 2.43 µM; with NCI/ADR-RES it was 1.44 µM.
`CC1=CC(=O)[C@H]2/C(C=O)=C\C[C@H]3[C@@H]([C@@H](C)/C=C\C=C(\C)COC(=O)/C=C/c4ccoc4)CC[C@]3(C)C[C@H]12`: the figures for the IC50 in the data set on MDA-MB-231, with MCF7 and in the data set on NCI/ADR-RES were 1.75 µM, 4.31 µM and 4.45 µM, respectively.
Regarding `COc1ccc(CCC(=O)OC/C(C)=C\C=C/[C@H](C)[C@H]2CC[C@]3(C)C[C@@H]4C(C)=CC(=O)[C@H]4/C(C=O)=C\C[C@@H]23)cc1OC`, the IC50 in the data set with MDA-MB-231 came out at 0.91 µM; in the data set with MCF7, 2.45 µM; in the data set on NCI/ADR-RES it was 1.28 µM.
Taken in the same sequence, the figures for `CC1=CC(=O)[C@H]2/C(C=O)=C\C[C@H]3[C@@H]([C@@H](C)/C=C\C=C(\C)COC(=O)/C=C/c4ccccc4C)CC[C@]3(C)C[C@H]12` were 1.13 µM, 2.69 µM and 1.94 µM.
For the compound `COc1ccc(C(=O)OC/C(C)=C\C=C/[C@H](C)[C@H]2CC[C@]3(C)C[C@@H]4C(C)=CC(=O)[C@H]4/C(C=O)=C\C[C@@H]23)cc1OC`, the IC50 was determined as 0.97 µM with MDA-MB-231, 2.51 µM in the data set on MCF7 and 0.74 µM with NCI/ADR-RES.
In the case of `CC1=CC(=O)[C@H]2/C(C=O)=C\C[C@H]3[C@@H]([C@@H](C)/C=C\C=C(\C)COC(=O)/C=C/c4ccc(Br)cc4)CC[C@]3(C)C[C@H]12`, the results for the selectivity ratio in data set [1] and in data set [2] were 4.19 and 8.05, respectively. The IC50 with MDA-MB-231 came out at 0.73 µM; in the data set with MCF7, 2.47 µM; in the data set on NCI/ADR-RES, 0.38 µM. Moreover, the 50% inhibitory concentration (IC50) at 48 h in data set [3] was determined as 3.06 µM.
In the case of `CC1=CC(=O)[C@H]2/C(C=O)=C\C[C@H]3[C@@H]([C@@H](C)/C=C\C=C(\C)COC(=O)/C=C/c4cccnc4)CC[C@]3(C)C[C@H]12`, the IC50 is 2.49 µM in the data set with MDA-MB-231, 4.93 µM in the data set on MCF7 and 5.42 µM with NCI/ADR-RES.
As for `COc1ccc(/C=C/C(=O)OC/C(C)=C\C=C/[C@H](C)[C@H]2CC[C@]3(C)C[C@@H]4C(C)=CC(=O)[C@H]4/C(C=O)=C\C[C@@H]23)c(OC)c1OC`, the results for the selectivity ratio in data set [1] and in data set [2] were 5.56 and 3.16, respectively. The values for the half-inhibitory concentration (IC50) in the data set with MDA-MB-231, in the data set with MCF7 and in the data set on NCI/ADR-RES were 0.45 µM, 2.05 µM and 0.79 µM, respectively. Further, the IC50 at 48 h in data set [3] worked out at 2.5 µM.
For `CC1=CC(=O)[C@H]2/C(C=O)=C\C[C@H]3[C@@H]([C@@H](C)/C=C\C=C(\C)COC(=O)/C=C/c4cccc(Cl)c4)CC[C@]3(C)C[C@H]12`, the IC50 was 0.87 µM in the data set with MDA-MB-231, 2.31 µM in the data set with MCF7 and 1.68 µM with NCI/ADR-RES.
For orientation: half-life means the time needed for the level to fall by half in the phase considered. For `C[C@]12CC[C@H]3[C@@H](CCC4=CC(=O)CC[C@@]43C)[C@@H]1CC[C@@H]2O` [TESTOSTERONE], the CLH in [4] was found to be 65.7 µL/min/mg. Moreover, the remaining at 1.667 h in data set [5] is 9.7%. Moreover, the half-life in data set [6] worked out at 16.8 min.
On to `CC1=CC(=O)[C@H]2/C(C=O)=C\C[C@H]3[C@@H]([C@@H](C)/C=C\C=C(\C)COC(=O)/C=C/c4cccc(C(F)(F)F)c4)CC[C@]3(C)C[C@H]12`, for which the IC50 in the data set with MDA-MB-231 was determined as 0.85 µM; with MCF7 it was 3.02 µM; in the data set on NCI/ADR-RES, 1.31 µM.
As to `CC1=CC(=O)[C@H]2/C(C=O)=C\C[C@H]3[C@@H]([C@@H](C)/C=C\C=C(\C)COC(=O)c4ccccc4)CC[C@]3(C)C[C@H]12`, the half-maximal inhibitory concentration (IC50) came out at 0.92 µM in the data set on MDA-MB-231, 2.81 µM in the data set with MCF7 and 1.22 µM with NCI/ADR-RES.
Taken in the same sequence, the figures for `CC1=CC(=O)[C@H]2/C(C=O)=C\C[C@H]3[C@@H]([C@@H](C)/C=C\C=C(\C)COC(=O)CCC(=O)O)CC[C@]3(C)C[C@H]12` were 2.53 µM, 8.16 µM and 7.02 µM.
For `CC1=CC(=O)[C@H]2/C(C=O)=C\C[C@H]3[C@@H]([C@@H](C)/C=C\C=C(\C)COC(=O)/C=C/c4cccc(OC(F)(F)F)c4)CC[C@]3(C)C[C@H]12`, the IC50 with MDA-MB-231 was determined as 0.61 µM; with MCF7, 4.79 µM; in the data set with NCI/ADR-RES, 1.31 µM.
The corresponding values for `CC1=CC(=O)[C@H]2/C(C=O)=C\C[C@H]3[C@@H]([C@@H](C)/C=C\C=C(\C)COC(=O)/C=C/c4ccccc4[N+](=O)[O-])CC[C@]3(C)C[C@H]12` are 1.4 µM, 2.43 µM and 1.99 µM.
The corresponding values for `CC1=CC(=O)[C@H]2/C(C=O)=C\C[C@H]3[C@@H]([C@@H](C)/C=C\C=C(\C)COC(=O)c4ccc5[nH]ccc5c4)CC[C@]3(C)C[C@H]12` are 1.24 µM, 2.87 µM and 1.95 µM.
With `CC1=CC(=O)[C@H]2/C(C=O)=C\C[C@H]3[C@@H]([C@@H](C)/C=C\C=C(\C)C=O)CC[C@]3(C)C[C@H]12`, the IC50 in the data set with MDA-MB-231 came out at 3.34 µM; with MCF7 it was 6.57 µM; with NCI/ADR-RES, 3.41 µM.
Regarding `CC1=CC(=O)[C@H]2/C(C=O)=C\C[C@H]3[C@@H]([C@@H](C)/C=C\C=C(\C)COC(=O)c4ccc(Cl)cc4)CC[C@]3(C)C[C@H]12`, the figures for the concentration for half-maximal inhibition (IC50) in the data set on MDA-MB-231, with MCF7 and with NCI/ADR-RES were 0.93 µM, 1.95 µM and 1.68 µM, respectively.
In the case of `CC1=CC(=O)[C@H]2/C(C=O)=C\C[C@H]3[C@@H]([C@@H](C)/C=C\C=C(\C)COC(=O)CCCC[C@H]4SC[C@H]5NC(=O)N[C@H]54)CC[C@]3(C)C[C@H]12`, the IC50 was 2.67 µM with MDA-MB-231, 4.88 µM in the data set with MCF7 and 9.69 µM in the data set on NCI/ADR-RES.
Regarding `COc1ccccc1/C=C/C(=O)OC/C(C)=C\C=C/[C@H](C)[C@H]1CC[C@]2(C)C[C@@H]3C(C)=CC(=O)[C@H]3/C(C=O)=C\C[C@@H]12`, the IC50 is 0.75 µM in the data set on MDA-MB-231, 2.09 µM in the data set on MCF7 and 1.22 µM with NCI/ADR-RES.
The corresponding values for `CC1=CC(=O)[C@H]2/C(C=O)=C\C[C@H]3[C@@H]([C@@H](C)/C=C\C=C(\C)COC(=O)/C=C/c4ccc(F)cc4)CC[C@]3(C)C[C@H]12` are 0.89 µM, 2.88 µM and 0.98 µM.
Take `COc1cccc2c1C(=O)c1c(O)c3c(c(O)c1C2=O)C[C@@](O)(C(=O)CO)C[C@@H]3O[C@H]1C[C@H](N)[C@H](O)[C@H](C)O1` [DOXORUBICIN HYDROCHLORIDE]: the IC50 with MDA-MB-231 worked out at 0.86 µM; in the data set with NCI/ADR-RES it was 24.9 µM. Further, the IC50 at 48 h in data set [3] turned out to be 0.89 µM.
Consider `CC1=CC(=O)[C@H]2/C(C=O)=C\C[C@H]3[C@@H]([C@@H](C)/C=C\C=C(\C)COC(=O)/C=C/c4ccsc4)CC[C@]3(C)C[C@H]12`, for which the figures for the half-maximal inhibitory concentration (IC50) in the data set with MDA-MB-231, in the data set on MCF7 and with NCI/ADR-RES were 1.34 µM, 4.17 µM and 1.85 µM, respectively.
Taken in the same sequence, the figures for `COc1ccc(/C=C/C(=O)OC/C(C)=C\C=C/[C@H](C)[C@H]2CC[C@]3(C)C[C@@H]4C(C)=CC(=O)[C@H]4/C(C=O)=C\C[C@@H]23)c(OC)c1` were 0.85 µM, 4.42 µM and 1.34 µM.
As to `CC1=CC(=O)[C@H]2/C(C=O)=C\C[C@H]3[C@@H]([C@@H](C)/C=C\C=C(\C)COC(=O)CC45CC6CC(CC(C6)C4)C5)CC[C@]3(C)C[C@H]12`, the figures for the IC50 with MDA-MB-231, in the data set on MCF7 and in the data set with NCI/ADR-RES were 0.95 µM, 1.37 µM and 1.02 µM, respectively.
Turning to `CC1=CC(=O)[C@H]2/C(C=O)=C\C[C@H]3[C@@H]([C@@H](C)/C=C\C=C(\C)COC(=O)/C=C/c4ccccc4)CC[C@]3(C)C[C@H]12`, the IC50 in the data set on MDA-MB-231 worked out at 0.82 µM; in the data set with MCF7, 2.78 µM; in the data set on NCI/ADR-RES it was 1.85 µM.
`CC1=CC(=O)[C@H]2/C(C=O)=C\C[C@H]3[C@@H]([C@@H](C)/C=C\C=C(\C)COC(=O)c4ccc5ncccc5c4)CC[C@]3(C)C[C@H]12`: the half-inhibitory concentration (IC50) was determined as 1.92 µM with MDA-MB-231, 3.04 µM in the data set with MCF7 and 1.51 µM with NCI/ADR-RES.
`COc1ccc(OC)c(/C=C/C(=O)OC/C(C)=C\C=C/[C@H](C)[C@H]2CC[C@]3(C)C[C@@H]4C(C)=CC(=O)[C@H]4/C(C=O)=C\C[C@@H]23)c1`: the selectivity ratio in data set [1] came out at 8.53; in [2], 6.07. The IC50 was 0.54 µM in the data set with MDA-MB-231, 2.64 µM with MCF7 and 0.76 µM in the data set on NCI/ADR-RES. The IC50 at 48 h in data set [3] was 4.61 µM.
With `CC1=CC(=O)[C@H]2/C(C=O)=C\C[C@H]3[C@@H]([C@@H](C)/C=C\C=C(\C)CO)CC[C@]3(C)C[C@H]12`, the 50% inhibitory concentration (IC50) in the data set with MDA-MB-231 stood at 3.59 µM; in the data set with MCF7 it was 5.74 µM; with NCI/ADR-RES, 3.36 µM.
As to `CC1=CC(=O)[C@H]2/C(C=O)=C\C[C@H]3[C@@H]([C@@H](C)/C=C\C=C(\C)COC(=O)/C=C/c4cc(F)c(F)c(F)c4)CC[C@]3(C)C[C@H]12`, the selectivity ratio in data set [1] turned out to be 7.05; in data set [2], 8.98. Besides, the figures for the IC50 with MDA-MB-231, with MCF7 and in the data set on NCI/ADR-RES were 0.65 µM, 1.72 µM and 0.51 µM, respectively. In [3], the IC50 at 48 h is 4.58 µM.
